Measurements as given in PubChem BioAssay (NCI).
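96-well plates; 48 h exposure; 5 concentrations. Endpoints by linear interpolation between flanking doses. Not reached: highest tested concentration assigned. TGI: concentration producing complete growth inhibition.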

Columns and labels:
Test in all cases: NCI anticancer screen, dose series, 48 h
PC-3 prostate = tested on: PC-3 prostate
SF-539 CNS = tested on: SF-539 CNS
OVCAR-3 ovarian = tested on: OVCAR-3 ovarian
DU-145 prostate = tested on: DU-145 prostate
HCC-2998 colon = tested on: HCC-2998 colon
OVCAR-4 ovarian = tested on: OVCAR-4 ovarian
HS 578T breast = tested on: HS 578T breast
OVCAR-5 ovarian = tested on: OVCAR-5 ovarian
SW-620 colon = tested on: SW-620 colon
UO-31 renal = tested on: UO-31 renal
KM12 colon = tested on: KM12 colon
SK-MEL-28 melanoma = tested on: SK-MEL-28 melanoma
SK-MEL-5 melanoma = tested on: SK-MEL-5 melanoma
BT-549 breast = tested on: BT-549 breast
ACHN renal = tested on: ACHN renal
U251 CNS = tested on: U251 CNS
A549 NSCLC = tested on: A549 NSCLC
M14 melanoma = tested on: M14 melanoma
NCI/ADR-RES ovarian = tested on: NCI/ADR-RES ovarian
NCI-H23 lung = tested on: NCI-H23 lung

SMILES | TGI (PC-3 prostate) [µM] | TGI (SF-539 CNS) [µM] | TGI (OVCAR-3 ovarian) [µM] | TGI (DU-145 prostate) [µM] | TGI (HCC-2998 colon) [µM] | TGI (OVCAR-4 ovarian) [µM] | TGI (HS 578T breast) [µM] | TGI (OVCAR-5 ovarian) [µM] | TGI (SW-620 colon) [µM] | TGI (UO-31 renal) [µM] | TGI (KM12 colon) [µM] | TGI (SK-MEL-28 melanoma) [µM] | TGI (SK-MEL-5 melanoma) [µM] | TGI (BT-549 breast) [µM] | TGI (ACHN renal) [µM] | TGI (U251 CNS) [µM] | TGI (A549 NSCLC) [µM] | TGI (M14 melanoma) [µM] | TGI (NCI/ADR-RES ovarian) [µM] | TGI (NCI-H23 lung) [µM]
c1cncc(C2(c3cc4ccccc4[nH]3)COCO2)c1 (stereo not drawn) | > 100 | > 100 | > 100 | > 100 | > 100 | > 100 | > 100 | > 100 | > 100 | > 100 | > 100 | > 100 | > 100 | > 100 | > 100 | > 100 | > 100 | > 100 | > 100 | > 100
O=C1C(N2CCN(c3ccccn3)CC2)=C(Cl)C(=O)c2ncccc21 | > 10 | > 10 | 3.95 | > 10 | > 6.52 | 1.95 | > 10 | > 10 | 2.78 | > 5.53 | > 5.95 | > 7.95 | 3.27 | > 10 | 4.91 | > 10 | > 10 | 3.82 | > 10 | 3.68
C[C@@]1(O)C[C@@H](N2C(=O)O[C@@H](c3ccccc3)[C@H]2c2ccccc2)[C@@H]1COCc1ccccc1 | 50.3 | 38.4 | 46.1 | > 100 | 58.4 | > 100 | 62.9 | 78.2 | > 100 | 67.8 | 74.3 | 44.5 | 27.2 | 51.2 | > 100 | 32.9 | 97.9 | 30 | 64.8 | 43.6
S=c1nc(N2CCCCC2)c2cn[nH]c2[nH]1 | > 100 | > 100 | > 100 | > 100 | > 100 | > 100 | > 100 | > 100 | > 100 | 77.9 | > 100 | > 100 | > 100 | > 100 | > 100 | > 100 | > 100 | > 100 | > 100 | > 100
Cn1c(=O)c2c(nc3n(CCCCl)c(=O)ccn23)n(C)c1=O | > 100 | > 100 | > 100 | > 100 | > 100 | > 100 | > 100 | > 100 | > 100 | > 100 | > 100 | > 100 | > 100 | > 100 | > 100 | > 100 | > 100 | > 100 | > 100 | > 100
CC1CCC2(O)C3(C)CC4(O)OC2(C1O)C1(O)C3(O)C(OC(=O)c2ccc[nH]2)C(O)(C(C)C)C41C (stereo not drawn) | > 100 | > 100 | > 100 | > 100 | > 100 | > 100 | > 100 | > 100 | > 100 | > 100 | > 100 | > 100 | > 100 | > 100 | > 100 | > 100 | > 100 | > 100 | > 100 | > 100
CN(CCNC(=O)c1nn(-c2ccccc2)c2c1Cc1ccccc1-2)CCNC(=O)c1nn(-c2ccccc2)c2c1Cc1ccccc1-2 | 4.81 | 4.11 | 3.52 | 6.75 | 3.13 | 4.48 | 3.77 | 6.8 | 3.09 | 3.22 | 3.69 | 3.24 | 3.38 | 18.7 | 3.44 | 3.09 | 4.93 | 3.27 | 6.36 | 3.7
CCN1CCC(O)(c2ccc(Oc3ccccc3)cc2)C(C(=O)c2ccc(Oc3ccccc3)cc2)C1 (stereo not drawn) | 27.1 | 23.4 | 31.9 | 27.5 | 19.6 | 25.3 | 78.1 | 31.3 | 26.4 | 21.8 | 18.9 | 26.5 | 25.7 | 22.5 | 29.8 | 24.2 | 27.5 | 26.3 | 35.1 | 27.7
CN(Cc1ccccc1)C(=NC#N)N(Cc1ccccc1)Cc1ccccc1 | 39.5 | 39.7 | 44.7 | > 100 | > 87.1 | > 93 | > 100 | 94.7 | > 100 | > 84.2 | 44.4 | 83.1 | 33.3 | 49.6 | 78.3 | 96.9 | > 100 | 47.7 | 56.1 | 64
C[C@]12CC[C@@H]3c4ccc(O)cc4CC[C@H]3[C@@H]1CC[C@@H]2OP(=O)(O)O | > 100 | > 100 | > 100 | > 100 | > 100 | > 100 | > 100 | > 100 | > 100 | > 100 | > 100 | > 100 | > 100 | > 100 | > 100 | > 100 | > 100 | > 100 | > 100 | > 100
C=CCOc1cc(NC(=S)c2ccoc2C)ccc1OC | > 100 | > 100 | > 100 | > 100 | > 100 | > 100 | > 100 | > 100 | > 100 | > 100 | > 100 | > 100 | > 100 | > 100 | > 100 | > 100 | > 100 | > 100 | > 100 | > 100
COC(=O)C(Cc1ccccc1)NP(=O)(O)OCC1OC(n2cc(Br)c(=O)[nH]c2=O)CC1O (stereo not drawn) | > 100 | > 100 | > 100 | > 100 | > 100 | > 100 | > 100 | > 100 | > 100 | > 100 | > 100 | > 100 | > 100 | > 100 | > 100 | > 100 | > 100 | > 100 | > 100 | > 100
O=c1c2ccccc2nc(-c2cc3c(cc2Cl)Sc2nccn2S3(=O)=O)n1-c1ccccc1 | 30.8 | 40.5 | 29.4 | 51.8 | 31 | 44.8 | 42.7 | > 100 | 47.5 | 31.7 | 24.7 | 41.8 | > 100 | > 100 | > 100 | 30.5 | > 100 | > 100 | 46.8 | > 100
CC1(C)C2C=C(CCN3CCOCC3)CC1C2 (stereo not drawn) | > 100 | > 100 | > 100 | > 100 | > 100 | > 100 | > 100 | > 100 | > 100 | > 100 | > 100 | > 100 | > 100 | > 100 | > 100 | > 100 | > 100 | > 100 | > 100 | > 100
O=[N+]([O-])c1c(F)c(F)c2c(c1F)Nc1ccccc1S2 | 22.4 | 39.6 | 4.1 | 13.3 | 6.96 | 6.59 | 28.6 | 26.5 | 6.28 | 34 | 15.5 | 5.74 | 23.8 | 25.8 | 29.1 | 3.9 | 36.9 | 10.4 | 59.7 | 7.13
O=NN1C(c2ccccc2)CC(=NO)CC1c1ccccc1 (stereo not drawn) | > 100 | > 100 | > 100 | > 100 | > 100 | > 100 | > 100 |  | > 100 | > 100 | > 100 | > 100 | > 100 | > 100 | > 100 | > 100 | > 100 | > 100 | > 100 | > 100
CC(=O)OC/C=C/[C@H](O[Si](C)(C)C(C)(C)C)[C@@H](O)/C=C/COC(C)=O | > 100 | > 100 | > 100 | > 100 | > 100 | > 100 | > 100 | > 100 | > 100 | > 100 | > 100 | > 100 | > 100 | > 100 | > 100 | > 100 | > 100 | > 100 | > 100 | > 100
CC(CC[C@@H](O)C(C)(C)O)C1[C@@H](O)CC2(C)C3CC(O)C4C(C)(C)[C@@H](OC5OC(CO)C(O)C(O)C5O)CC[C@@]45C[C@@]35CC[C@]12C (stereo partly drawn) | > 10 | > 10 | > 10 | > 10 | > 10 | > 10 | > 10 | > 10 | > 10 |  | > 10 | > 10 | > 10 | > 10 | > 10 | > 10 | > 10 | > 10 | > 10 | > 10
